Measured values taken from ChEMBL document CHEMBL1142058, “Amorphane sesquiterpenes from a marine Streptomyces sp” (J Nat Prod, 2007).
Activity calls are given as the source filed them.

Tests used:
Assay type in all cases: functional, organism-based
[1] = tested on: Candida albicans; test: Antifungal activity against Candida albicans at 80 ug/disk
[2] = tested on: Bacillus subtilis; test: Antibacterial activity against Bacillus subtilis at 80 ug/disk
[3] = tested on: Artemia; test: Activity against brine shrimp at 10 ug/mL
[4] = tested on: Streptomyces viridochromogenes; test: Antibacterial activity against Streptomyces viridochromogenes Tu 57 at 80 ug/disk
[5] = tested on: Desmodesmus subspicatus; test: Antimicrobial activity against Scenedesmus subspicatus at 80 ug/disk
[6] = tested on: Chlorella vulgaris; test: Antimicrobial activity against Chlorella vulgaris at 80 ug/disk
[7] = tested on: Escherichia coli; test: Antibacterial activity against Escherichia coli at 80 ug/disk
[8] = tested on: Staphylococcus aureus; test: Antibacterial activity against Staphylococcus aureus at 80 ug/disk
[9] = tested on: Chlorella sorokiniana; test: Antimicrobial activity against Chlorella sorokiniana at 80 ug/disk
[10] = tested on: Rhizomucor miehei; test: Antifungal activity against Mucor miehei at 80 ug/disk

Measured: Activity

CC1=C[C@H]2[C@@H](C(C)C)CC[C@@](C)(O)[C@H]2CC1=O
inactive: all assays above

CC(C)[C@H]1CC[C@@](C)(O)[C@H]2CC(=O)C(CO)=C[C@@H]12
inactive: all assays above

C[C@H]1C(=O)C[C@H]2[C@@H](C1O)[C@@H](C(C)(C)O)CC[C@@]2(C)O (stereo not given in full)
inactive: all assays above

CC1=C[C@H]2[C@@H](C(C)(C)O)CC[C@@](C)(O)[C@H]2CC1
inactive: all assays above
